Experimental data as given in US8881823B2, “Environmentally friendly low temperature breaker systems and related methods” (Halliburton Energy Services, Inc., priority 2011, dated 2014).

How the values were obtained:
[1] = Active toxicity test of GLDA on Rainbow trout (OECD 203); format: in vivo, Oncorhynchus mykiss; conditions: rainbow trout (Oncorhynchus mykiss), in vivo, OECD 203, 96-h
Experimental: (§1) GLDA was also tested for its eco-toxicological effect on various environmental subjects. In particular, the active toxicity of GLDA was measured on various organisms following OECD 201, 202 and 203 protocols.

[2] = test system: Rainbow trout (Oncorhynchus mykiss); assay: as above; format: in vivo; conditions: OECD 203, 96-h
Experimental: as §1

[3] = Active toxicity test of GLDA on Daphnia magna (OECD 202); format: in vivo; conditions: in vivo, OECD 202, 48-h
Experimental: as §1

Daphnia magna = assay: as above; format: in vivo; conditions: OECD 202, 48-h
Experimental: as §1

[4] = design: species or system Alga; conditions: alga, in vivo
Experimental: as §1

Alga = conditions: Alga, in vivo, 72 h
Experimental: as §1

[5] = Biodegradability, OECD 301 D Closed Bottle Test
Excerpt: The same protocol was used to test EDTA (“DISSOLVINE AM3-40” available from AkzoNobel Corporate) and sodium acetate.

[6] = Chemical oxygen demand (COD) test; format: physicochemical
Excerpt: Table 2 compares the biodegradability of GLDA and EDTA and summarizes chemical oxygen demand (COD) tests which indirectly measures the amount of organic compounds in water.

[7] = Miscibility and pH of breaker systems in fresh water; format: physicochemical; conditions: breaker system in fresh water, 150° F. for 16 hours
Experimental: Several chelating agents and acids (breaker systems) were tested for their calcium carbonate dissolving capacity and miscibility in fresh water. Tests of the breaker systems were performed by adding a known volume of breaker system to a volume of brine needed to fill 100 ml in a jar. The jars were then sealed and swirled to mix the components. Samples containing 5%, 10%, or 20% v/v of chelating agents and acids were prepared. The jars were then placed in a static oven at 150° F. for 16 hours. Afterwards, miscibility of the components was observed and the pH of each mixture was tabulated.

[8] = Dissolution and miscibility tests in sodium bromide brines; format: physicochemical; conditions: for % Complexed or Dissolved / Final Weight of BARACARB 5: 2.5 g BARACARB 5, 150° F., 16 hours
Experimental: Dissolution and miscibility tests were also performed on 20% GLDA in sodium bromide brines. 20% GLDA was mixed in various concentration of NaBr in order to evaluate the effect of brine concentration on the dissolving capacity of GLDA. Without being limited by theory, it is believed that reducing the amount of available free water in the brine reduced the dissociation rate of the acid functionalities on the breaker, which in turn reduced the amount of complexed calcium ions. These tests were performed in 20% v/v breaker systems in 10.2 lb/gal KCl/NaBr brine or 12.5 lb/gal NaBr brine. In each case, 2.5 g of BARACARB 5 calcium carbonate was added to the breaker systems at 150° F. for 16 hours. For comparison, a mineral acid breaker system was also tested.

[9] = Initial and over time miscibility and pH in potassium formate brines; format: physicochemical; conditions: for After Static Aging: overnight 150° F.; for pH Final: static 16 hrs @ 150° F.
Experimental: Completion breaker solutions were to be tested at 5%, 10%, and 20% by volume concentrations in each of the brines. The initial miscibility and the miscibility after static aging overnight at 150° F. were observed. Also, the pH of the final mixes was measured. The different concentrations of the breaker solutions were prepared with fresh water and filtered through a 1.6 μm glass fiber filter prior to testing.
The tests were run by adding the appropriate volume of the test breaker (5%, 10%, or 20% by volume) to the volume of the test brine needed to total 100 ml in a 4 ounce jar, sealing it, and swirling to mix the components. Observation was noted of the compatibility of the components.

[10] = Compatibility and dissolution ability in potassium formate brine; format: physicochemical; conditions: for % Dissolved or precipitated out / Amount of carbonate remaining: 20% v/v breaker; for Amount of carbonate remaining: 2.5 g calcium carbonate, 16 hours, * = precipitation of formate salts
Experimental: In this Example, the compatibility and dissolution ability of various breaker systems with formate brine were evaluated. […] For each sample a 20% v/v breaker sample was prepared in three different concentrations of potassium formate brine (11 ppg, 12 ppg, and 13 ppg).
To determine the compatibility of each breaker with the potassium formate brine, each sample was checked for the formation of formate salts. This precipitation was indicative of an incompatibility of the breaker system with the formate brine. Samples in which precipitation was observed are noted with an asterisk (*).
The dissolution ability of the breaker systems was also tested in the various concentration of formate brine. […] The jars were then dried in an 90° F. oven for 16 hours. After the elapsed time, the amount of carbonate that remained was weighed and tabulated. The difference in weight represented the amount of carbonate that was dissolved by the breaker system and/or precipitated out as a result of being incompatible with the formate brine.

[11] = 20% v/v breaker in 10.2 lb/gal KCl/NaBr
[12] = 20% v/v breaker in 12.5 lb/gal NaBr
[13] = 5% by volume, potassium formate brine 11.0 lb/gal
[14] = 5% by volume, potassium formate brine 12.0 lb/gal
[15] = 5% by volume, potassium formate brine 13.0 lb/gal
[16] = 10% by volume, potassium formate brine 11.0 lb/gal
[17] = 10% by volume, potassium formate brine 12.0 lb/gal
[18] = 10% by volume, potassium formate brine 13.0 lb/gal
[19] = 20% by volume, potassium formate brine 11.0 lb/gal
[20] = 20% by volume, potassium formate brine 12.0 lb/gal
[21] = 20% by volume, potassium formate brine 13.0 lb/gal

## O=C(O)CC[C@@H](C(=O)O)N(CC(=O)O)CC(=O)O [GLDA, L-glutamic acid N,N-diacetic acid]
[1]
  LC50 at 96 h: > 100 µg/mL
[2]
  96-h NOEC: NOEC ≧ 100 mg/l
[3]
  EC50 at 48 h: > 100 µg/mL
Daphnia magna
  48-h NOEC: NOEC ≧ 100 mg/l
[4]
  EC50 at 72 h: > 100 µg/mL
Alga
  72-h NOEC: NOEC ≧ 100 mg/l
[5]
  Biodegradability: Easy
  biodegradability (in words): readily biodegradable
[6]
  COD: 345 to 385 mg/g
[7]
  pH: >12
[8]; [11]
  % Complexed or Dissolved: 49%
  Final Weight of BARACARB 5: 1.27 g
[8]; [12]
  % Complexed or Dissolved: 29%
  Final Weight of BARACARB 5: 1.78 g
[8]; higher brine concentration
  carbonate dissolved (FIG. 2): less than 45%
[8]; lower brine concentration
  carbonate dissolved (FIG. 2): more than 80%
[9]; [13]
  Initial Observation: Clear, totally soluble
  After Static Aging: Clear, totally soluble
  pH Final: 12.7
[9]; [14]
  Initial Observation: Clear, totally soluble
  After Static Aging: Clear, totally soluble
  pH Final: 13.3
[9]; [15]
  Initial Observation: Clear, totally soluble
  After Static Aging: Clear, totally soluble
  pH Final: 13.8
[9]; [16]
  Initial Observation: Clear, totally soluble
  After Static Aging: Clear, totally soluble
  pH Final: 13.3
[9]; [17]
  Initial Observation: Clear, totally soluble
  After Static Aging: Clear, totally soluble
  pH Final: 14.4
[9]; [18]
  Initial Observation: Clear, totally soluble
  After Static Aging: Clear, totally soluble
  pH Final: 15.0
[9]; [19]
  Initial Observation: Clear, totally soluble
  After Static Aging: Clear, totally soluble
  pH Final: 13.7
[9]; [20]
  Initial Observation: Clear, totally soluble
  After Static Aging: Clear, totally soluble
  pH Final: 14.7
[9]; [21]
  Initial Observation: Clear, totally soluble
  After Static Aging: Clear, totally soluble
  pH Final: 15.4
[9]; tested concentrations, 11.0-13.0 lb/gal brines
  solubility / miscibility in the potassium formate brines: soluble in the tested concentrations of the potassium formate brine
[10]; 20% v/v breaker, 11, 12 and 13 ppg potassium formate, precipitation of formate salts = incompatible
  compatibility with the formate brine: fully compatible with the formate brine
[10]; 11 ppg Potassium Formate
  % Dissolved or precipitated out: 48%
  Amount of carbonate remaining: 1.05 g
[10]; 12 ppg Potassium Formate
  % Dissolved or precipitated out: 33%
  Amount of carbonate remaining: 1.67 g
[10]; 13 ppg Potassium Formate
  % Dissolved or precipitated out: 20%
  Amount of carbonate remaining: 2.00 g
